The values that follow come from PubChem BioAssay (NCI).

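Step 1: Grow cells in 96-well plates. Step 2: Expose to compound for 48 hours at 5 concentrations. Step 3: Interpolate endpoints linearly; if unreached, use highest concentration. GI50: concentration for 50% inhibition of growth. The concentration for full growth arrest is given as TGI.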

Holding throughout (test): growth of human tumour cells (NCI), 48 h
The test system of assay [1] is NCI-H226 lung.
The test system of assay [2] is HCT-116 colon.
Assay [3] concerns OVCAR-3 ovarian.
For assay [4], the system named is ACHN renal.
In assay [5] the test system is NCI-H460 lung.
Assay [6] relates to M14 melanoma.
In assay [7] the test system is SR leukemia.
Assay [8] relates to SF-268 CNS.
The subject of assay [9] is A498 renal.
The subject of assay [10] is OVCAR-5 ovarian.

With `COc1cc2c3c(n(C)c(=O)c2cc1OC)-c1cc2c(cc1/C3=C\C(N)CN)OCO2` (centres undefined), the GI50 in assay [1] was 1.89 µM; in assay [2], 1.16 µM; in assay [3] it was 1.92 µM; in assay [4], 0.73 µM; in [5], 1.5 µM; in assay [6], 2.23 µM. Further, the GI50 in [7] is 0.219 µM; in assay [8], 0.692 µM; in assay [9] it was 1.37 µM; in assay [10] it was 4.43 µM. The TGI in [1] is greater than 22.4 µM; in assay [2], 2.44 µM; in assay [3] it was 6.88 µM; in assay [4] it was 2.82 µM; in assay [5], 7.58 µM; in assay [6] it was 7.26 µM. The TGI in [8] is 15 µM; in assay [9] it was 9.77 µM; in assay [10], greater than 30.9 µM.
As to `CCN1C(=O)N(CC)C2C1NN=c1s/c(=C\c3cc4ccccc4[nH]3)c(=O)n12` (centres undefined), the GI50 is 0.186 µM in [1]; less than 0.01 µM in assay [2]; less than 0.0157 µM in [4]; 0.0331 µM in assay [5]; 0.0237 µM in [6]; less than 0.01 µM in assay [7]. The GI50 was less than 0.0229 µM in assay [8], 0.0108 µM in assay [9] and less than 0.0128 µM in assay [10]. Besides, the TGI is 61.6 µM in assay [1]; greater than 37.2 µM in [2]; 20.3 µM in [4]; 14.8 µM in assay [5]; greater than 100 µM in assay [6]; 20.4 µM in assay [8]. Also, the TGI in assay [9] was 0.0628 µM; in [10] it was greater than 100 µM.
In the case of `C1CCOC2(CCC3(CC2)OCCCCO3)OC1`, the TGI in assay [1], in assay [2], in assay [4], in assay [5], in assay [6] and in [7] was greater than 100 µM each time. For the same compound, the TGI in assay [8] and in assay [9] was greater than 100 µM throughout.
With `C=CC1C(OC2OC(CO)C(O)C(O)C2O)OC=C(C(=O)OC)C1CC=O` (centres undefined), the TGI in [1], in [3], in assay [4], in [6], in assay [7] and in [8] was greater than 100 µM throughout. In assay [9], this compound came in with a TGI greater than 100 µM.
As for `COc1ccc(-c2nn(-c3cccc(Cl)c3)cc2-c2cc(-c3ccccc3)nc(N)n2)cc1`, the GI50 in [1] was 4.99 µM; in [3], 4.53 µM; in assay [4] it was 4.58 µM; in assay [6], 2.69 µM; in [7], 2.03 µM; in [8], 3.76 µM. Further, the GI50 in assay [9] is 2.21 µM; in assay [10], 2.94 µM. In addition, the TGI in assay [1] was determined as 22 µM; in [3], 15.3 µM; in [4], 15.8 µM; in assay [6], 13.2 µM; in [7], 5.21 µM; in assay [8], 18.9 µM. The TGI in assay [9] is 11.9 µM; in [10] it was 11 µM.
In the case of `CSc1ccccc1C#Cc1ccccc1C#CCCCCO`, the GI50 in assay [1] is 19 µM; in assay [2], 14 µM; in assay [3], 14.7 µM; in assay [4] it was 11.3 µM; in assay [5], 8.64 µM; in assay [7], 3.54 µM. In addition, the figures for the GI50 in [8], in assay [9] and in assay [10] were 13.7 µM, 2.24 µM and 13.6 µM, respectively. Also, the TGI in assay [1] was 43.6 µM; in assay [2], 31.4 µM; in [3], 28.7 µM; in assay [4], 23.4 µM; in assay [5], 22.2 µM; in assay [7], 17.5 µM. Besides, the TGI in [8] was determined as 28.4 µM; in assay [9], 14.3 µM; in [10], 32.2 µM.
Consider `N#Cc1cc([N+](=O)[O-])ccc1NC(=O)/C(=N/N)C(C(=O)c1ccc(Cl)c(Cl)c1)C1OC(=O)c2ccccc21` (centres undefined), for which the TGI in assay [1], in [2], in assay [3], in [4], in assay [5] and in [7] was greater than 100 µM each time. The TGI in [8], in [9] and in [10] was greater than 100 µM in each case.
For the compound `O=C(CCCSc1nc(-c2ccccc2)cc(-c2ccc(Cl)cc2)n1)NO`, the GI50 is 3.12 µM in [1]; 1.04 µM in assay [2]; 0.675 µM in assay [3]; 0.399 µM in [4]; 0.558 µM in assay [5]; 0.364 µM in assay [7]. The GI50 is 1.88 µM in assay [8], 1.7 µM in assay [9] and 2.12 µM in assay [10]. The TGI in assay [1] amounted to 17.1 µM; in assay [2] it was 13.1 µM; in [3] it was 9.38 µM; in assay [4], 4.38 µM; in assay [5], 7.29 µM; in assay [7], 13.2 µM. The values for the TGI in assay [8], in [9] and in assay [10] were 7.14 µM, 4.7 µM and 8.48 µM, respectively.
Regarding `COC(=O)C1=C(OC(=O)c2ccc(Cl)cc2)C(C(=O)OC)[C@@]2(O)[C@@H](C(=O)OC)C(c3ccccc3Cl)C[C@@H]1[C@@H]2C(=O)OC` (some centres undefined), the GI50 in assay [2] was 3.17 µM; in assay [3] it was 1.76 µM; in assay [4], 3.49 µM; in [5] it was 4.18 µM; in [6] it was 4.07 µM; in assay [7] it was 8.11 µM. For the same compound, the GI50 was 5.41 µM in assay [8], 2.81 µM in assay [9] and 55.3 µM in assay [10]. Also, the TGI in assay [2] was greater than 100 µM; in assay [3] it was 5.95 µM; in assay [4], greater than 100 µM; in assay [5], greater than 100 µM; in assay [6], 90.1 µM; in assay [7], greater than 100 µM. The values for the TGI in [8], in assay [9] and in [10] were greater than 100 µM, 13.2 µM and greater than 100 µM, respectively.
For the compound `O=c1[nH]c(-c2ccc(-c3nc4cc([N+](=O)[O-])ccc4c(=O)[nH]3)cc2)nc2cc([N+](=O)[O-])ccc12`, the TGI in [1], in assay [2], in assay [3], in assay [4], in assay [5] and in assay [6] was greater than 100 µM throughout. In addition, the TGI in [7] was greater than 100 µM; in assay [9] it was 31.3 µM; in [10] it was greater than 100 µM.
